{
  "source": "patent US8431595B2",
  "about": "“Furanopyridine cannabinoid compounds and related methods of use” (The University of Tennessee Research Foundation, priority 2009, dated 2013)",
  "system": "glioblastoma brain cancer cell line LN-229",
  "experiment": "Cytotoxicity assay (CCK8 viability)",
  "assay_type": "cell-based",
  "details": "Homo sapiens, LN-229 cells, 48 hrs",
  "protocol": "Cytoxocity assay: Cells are seeded on a 96 well polystyrene plate in full serum media at a density of 75,000 cells per milliliter, 100 μL per well. Plates are incubated at 37° C. and 5% CO2 for 24 hours to allow cell attachment. Drug solutions are prepared in DMSO at 100× concentration and mixed 1:100 in 1% FBS media to yield the desired concentration. Drug-media mixtures are vortexed immediately prior to administration to cells. […] of Cell Counting Kit 8 (CCK8, Dojindo# CK04-11) is added to each well to colormetrically assess viability. After 2-4 hours of incubation with the CCK8 dye, absorbance is read at 450 nm by a BioTek Synergy 2 plate reader.\nThe cytotoxicity of selected compounds against the glioblastoma brain cancer cell line LN-229 is depicted in Table 1.",
  "data": [
    {"smiles": "CCCCCCC(C)(C)c1cc(O)c2c(-c3ccccc3)coc2n1", "note": "[Compound 4c, 6-(2-Methyloctan-2-yl)-3-phenylfuro[2,3-b]pyridin-4-ol]", "values": [
      {"measurement": "EC50", "value": 33.6, "unit": "µM"}
    ]}
  ]
}
